According to patent publication US11542273B2, “Amide compound having bet proteolysis-inducing action and medicinal application thereof” (MITSUBISHI TANABE PHARMA CORPORATION, priority 2018, dated 2023):
Read-outs that look alike come from different tables or passages of the source.

Tests used:
[1] = tested on: human acute myeloid leukemia MV-4-11 cell transplanted mouse; test: Antitumor effect in human acute myeloid leukemia MV-4-11 cell transplanted mouse; assay type: in vivo; details: MV4-11, iv, 360 h
Experimental: The in vivo antitumor effect of the compound of the present invention was studied using human acute myeloid leukemia MV-4-11 cell transplanted mouse. MV-4-11 cells were subcutaneously transplanted into the inguinal region of male, 6-week-old BALB/c nude mouse (5×10^6 cells/mouse). The compound of the present invention was administered into the tail vein on days 1, 5, 9, 13 from the time point when the assumed tumor volume determined from 1/2ab^2 (a is major axis and b is minor axis of tumor) reached about 100 mm^3 (day 1). The control group was administered with a solvent, 10% hydroxypropyl-β-cyclodextrin solution. On day 15, the tumor was isolated, the weight was measured, and the tumor growth inhibitory rate IR (%) was calculated by the following formula. tumor growth inhibitory rate IR (%)=(1−tumor weight of administration group/tumor weight of nonadministration control group)×100

BRD4 protein = BRD4 protein (Homo sapiens (Human), UniProt O60885); test: BRD4 protein degradation inducing action in cancer cells (immunofluorescence, Operetta); assay type: cell-based; details: LNCaP cells, 6 hr treatment, fluorescence intensity
Method in brief: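 LNCaP prostate cancer cells in 10% FBS/RPMI1640 were exposed to compound for 6 hr at 37° C, then fixed, permeabilized and immunostained for BRD4 with Alexa Fluor 488 or 546 secondary antibodies plus Hoechst nuclear stain. Fluorescence was read by high-content imaging; DC50 is the concentration giving 50% of untreated signal, interpolated linearly between bracketing points.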

[2] = tested on: human prostate cancer LNCaP cells; test: Cytotoxic action on cancer cells (WST-8, 96 hr); assay type: cell-based; details: Homo sapiens, LNCaP, 96 h, read-out: LNCaP cytotoxic activity: IC50
Method in brief: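 Cells in 10% FBS/RPMI1640 were seeded, cultured overnight at 37° C, 5% CO2, then exposed to DMSO-dissolved compound diluted in medium. Viable cells were counted with a WST-8 kit against compound-free controls. IC50 was interpolated linearly between the two survival points bracketing 50%.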

[3] = read-out: tumor growth inhibitory rate

SMILES	inhibition in vivo at 0.3 mg/kg ([1]; dose 0.3 mg/kg/day, tail vein on days 1, 5, 9, 13, tumor weight on day 15, read-out: tumor growth inhibitory rate)	DC50 (BRD4 protein)	IC50 [2]	inhibition in vivo at 3 mg/kg [1, 3]	inhibition in vivo at 0.3 mg/kg [1, 3]	inhibition in vivo at 3 mg/kg ([1]; dose 3 mg/kg/day, tail vein on days 1, 5, 9, 13, tumor weight on day 15, read-out: tumor growth inhibitory rate)	inhibition in vivo at 1 mg/kg [1, 3]
COC(=O)N[C@@H]1N=C(c2ccc(-c3ccc(OCC(=O)N[C@H](C(=O)N4C[C@H](O)C[C@H]4C(=O)N[C@@H](C)c4ccc(-c5scnc5C)cc4)C(C)(C)C)cc3)cc2)c2c(sc(C)c2C)-n2c(C)nnc21 [Example 31, methyl [(6R)-4-{4′-[2-({(2S)-1-[(2S,4R)-4-hydroxy-2-({(1S)-1-[4-(4-methyl-1,3-thiazol-5-yl)phenyl]ethyl}carbamoyl)pyrrolidin-1-yl]-3,3-dimethyl-1-oxobutan-2-yl}amino)-2-oxoethoxy][1,1′-biphenyl]-4-yl}-2,3,9-trimethyl-6H-thieno[3,2-f][1,2,4]triazolo[4,3-a][1,4]diazepin-6-yl]carbamate]	95.6%	62 pM	39 pM	–	–	–	–
COC(=O)C[C@@H]1N=C(c2ccc(-c3ccc(OCC(=O)N[C@H](C(=O)N4C[C@H](O)C[C@H]4C(=O)NCc4ccc(-c5scnc5C)cc4)C(C)(C)C)cc3)cc2)c2c(sc(C)c2C)-n2c(C)nnc21 [Example 61, methyl [(6S)-4-{4′-[2-({(25)-1-[(2S,4R)-4-hydroxy-2-({[4-(4-methyl-1,3-thiazol-5-yl)phenyl]methyl}carbamoyl)pyrrolidin-1-yl]-3,3-dimethyl-1-oxobutan-2-yl}amino)-2-oxoethoxy][1,1′-biphenyl]-4-yl}-2,3,9-trimethyl-6H-thieno[3,2-f][1,2,4]triazolo[4,3-a][1,4]diazepin-6-yl]acetate]	–	810 pM	170 pM	97.2%	–	–	–
COC(=O)C[C@@H]1N=C(c2ccc(-c3ccc(C(=O)N[C@H](C(=O)N4C[C@H](O)C[C@H]4C(=O)N[C@@H](C)c4ccc(-c5scnc5C)cc4)C(C)(C)C)cc3F)cc2)c2c(sc(C)c2C)-n2c(C)nnc21 [Example 62, methyl {(6S)-4-[2′-fluoro-4′-({(2S)-1-[(2S,4R)-4-hydroxy-2-({(1S)-1-[4-(4-methyl-1,3-thiazol-5-yl)phenyl]ethyl}carbamoyl)pyrrolidin-1-yl]-3,3-dimethyl-1-oxobutan-2-yl}carbamoyl) [1,1′-biphenyl]-4-yl]-2,3,9-trimethyl-6H-thieno[3,2-f][1,2,4]triazolo[4,3-a][1,4]diazepin-6-yl}acetate]	–	240 pM	260 pM	97.4%	95.6%	–	–
COC(=O)C[C@@H]1N=C(c2ccc(N3CC[C@@H](C(=O)NCCOc4ccc5oc(C(=O)N[C@H](C(=O)N6C[C@H](O)C[C@H]6C(=O)N[C@@H](C)c6ccc(-c7scnc7C)cc6)C(C)(C)C)cc5c4)C3)cc2)c2c(sc(C)c2C)-n2c(C)nnc21 [Example 67, methyl [(6S)-4-(4-{(3R)-3-[(2-{[2-({(2S)-1-[(2S,4R)-4-hydroxy-2-({(1S)-1-[4-(4-methyl-1,3-thiazol-5-yl)phenyl]ethyl}carbamoyl)pyrrolidin-1-yl]-3,3-dimethyl-1-oxobutan-2-yl}carbamoyl]-1-benzofuran-5-yl]oxy}ethyl)carbamoyl]pyrrolidin-1-yl}phenyl)-2,3,9-trimethyl-6H-thieno[3,2-f][1,2,4]triazolo[4,3-a][1,4]diazepin-6-yl]acetate]	–	550 pM	470 pM	–	–	97.7%	–
COC(=O)C[C@@H]1N=C(c2ccc(-c3ccc(C(=O)N[C@H](C(=O)N4C[C@H](O)C[C@H]4C(=O)N[C@@H](C)c4ccc(-c5scnc5C)cc4)C(C)(C)C)c(F)c3)cc2)c2c(sc(C)c2C)-n2c(C)nnc21 [Example 94, methyl {(6S)-4-[3′-fluoro-4′-({(2S)-1-[(2S,4R)-4-hydroxy-2-({(1S)-1-[4-(4-methyl-1,3-thiazol-5-yl)phenyl]ethyl}carbamoyl)pyrrolidin-1-yl]-3,3-dimethyl-1-oxobutan-2-yl}carbamoyl)[1,1′-biphenyl]-4-yl]-2,3,9-trimethyl-6H-thieno[3,2-f][1,2,4]triazolo[4,3-a][1,4]diazepin-6-yl}acetate]	–	640 pM	290 pM	98.2%	–	–	–
COC(=O)C[C@@H]1N=C(c2ccc(-c3ccc4oc(C(=O)N[C@H](C(=O)N5C[C@H](O)C[C@H]5C(=O)N[C@@H](C)c5ccc(-c6scnc6C)cc5)C(C)(C)C)nc4c3)cc2)c2c(sc(C)c2C)-n2c(C)nnc21 [Example 101, methyl [(6S)-4-{4-[2-({(2S)-1-[(2S,4R)-4-hydroxy-2-({(1S)-1-[4-(4-methyl-1,3-thiazol-5-yl)phenyl]ethyl}carbamoyl)pyrrolidin-1-yl]-3,3-dimethyl-1-oxobutan-2-yl}carbamoyl)-1,3-benzoxazol-5-yl]phenyl}-2,3,9-trimethyl-6H-thieno[3,2-f][1,2,4]triazolo[4,3-a][1,4]diazepin-6-yl]acetate]	–	52 pM	59 pM	98.2%	–	–	–
COC(=O)C[C@@H]1N=C(c2ccc(N3CC[C@H](C(=O)Nc4ccc5oc(C(=O)N[C@H](C(=O)N6C[C@H](O)C[C@H]6C(=O)N[C@@H](C)c6ccc(-c7scnc7C)cc6)C(C)(C)C)cc5c4)C3)cc2)c2c(sc(C)c2C)-n2c(C)nnc21 [Example 138, methyl [(6S)-4-{4-[(3S)-3-{[2-({(2S)-1-[(2S,4R)-4-hydroxy-2-({(1S)-1-[4-(4-methyl-1,3-thiazol-5-yl)phenyl]ethyl}carbamoyl)pyrrolidin-1-yl]-3,3-dimethyl-1-oxobutan-2-yl}carbamoyl)-1-benzofuran-5-yl]carbamoyl}pyrrolidin-1-yl]phenyl}-2,3,9-trimethyl-6H-thieno[3,2-f][1,2,4]triazolo[4,3-a][1,4]diazepin-6-yl]acetate]	–	620 pM	240 pM	98.6%	–	–	97.8%
